According to ChEMBL document CHEMBL1140555, “Synthesis and evaluation of novel pyrazolidinone analogs of PGE2 as EP2 and EP4 receptors agonists” (Bioorg Med Chem Lett, 2007):
≈ marks a conversion by molar mass, not a printed value.

What was measured:
[1] = species: Homo sapiens; test: Selectivity for human EP4 over human EP2 receptor
[2] = biological target: T1, Prostaglandin E2 receptor EP2 subtype (Homo sapiens, UniProt P43116); test: Agonist activity at human prostaglandin EP2 receptor; format: functional
T1 sequence (P43116 whole entry): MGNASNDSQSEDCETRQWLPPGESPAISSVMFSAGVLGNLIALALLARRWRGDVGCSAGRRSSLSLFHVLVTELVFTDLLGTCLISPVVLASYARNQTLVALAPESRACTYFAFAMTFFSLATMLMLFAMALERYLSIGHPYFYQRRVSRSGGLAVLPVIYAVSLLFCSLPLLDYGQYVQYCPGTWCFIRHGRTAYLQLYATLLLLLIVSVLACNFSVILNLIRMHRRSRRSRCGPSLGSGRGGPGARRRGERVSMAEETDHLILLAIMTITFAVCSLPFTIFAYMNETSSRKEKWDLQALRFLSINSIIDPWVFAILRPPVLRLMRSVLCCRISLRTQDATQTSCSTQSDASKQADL

[3] = biological target: T2, Prostaglandin E2 receptor EP4 subtype (Homo sapiens, UniProt P35408); test: Agonist activity at human prostaglandin EP4 receptor; format: functional
T2 sequence (P35408 whole entry): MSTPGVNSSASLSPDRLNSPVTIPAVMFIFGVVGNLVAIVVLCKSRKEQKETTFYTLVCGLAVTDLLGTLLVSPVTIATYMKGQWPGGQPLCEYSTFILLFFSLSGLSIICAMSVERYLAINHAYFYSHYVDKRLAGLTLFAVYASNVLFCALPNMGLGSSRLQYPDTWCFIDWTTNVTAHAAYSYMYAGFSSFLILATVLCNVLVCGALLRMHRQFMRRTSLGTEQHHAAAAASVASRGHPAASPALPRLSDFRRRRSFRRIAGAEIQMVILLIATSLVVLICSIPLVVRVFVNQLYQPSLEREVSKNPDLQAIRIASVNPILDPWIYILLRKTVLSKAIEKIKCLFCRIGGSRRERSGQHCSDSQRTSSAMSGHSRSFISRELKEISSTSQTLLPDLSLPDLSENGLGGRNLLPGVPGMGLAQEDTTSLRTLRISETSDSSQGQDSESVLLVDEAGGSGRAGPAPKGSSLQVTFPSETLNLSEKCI

[4] = biological target: T2, Prostaglandin E2 receptor EP4 subtype; test: Binding affinity at human prostaglandin EP4 receptor
[5] = biological target: T1, Prostaglandin E2 receptor EP2 subtype; test: Binding affinity at human prostaglandin EP2 receptor
[6] = Solubility in HBSS; format: physicochemical
[7] = Half life in rat; format: ADME, organism-based; settings: in vivo
[8] = Metabolic stability in human liver microsomes after 1 hr; format: ADME, Microsome; settings: read-out: Stability
[9] = Metabolic stability in rat liver microsomes after 1 hr; format: ADME, Microsome; settings: read-out: Stability
[10] = Apparent permeability of the compound; format: ADME; settings: not told
[11] = system: Mus musculus; test: Induction of ovulation in sc dosed CD1 mouse; format: functional, organism-based
[12] = Solubility in saline; format: physicochemical
[13] = Fraction unbound ligand in rat; format: ADME
[14] = Oral bioavailability in rat; format: ADME, organism-based; settings: in vivo

| Ki [4] [nM] | Ki [5] [nM] | SMILES | other results |
| --- | --- | --- | --- |
|  |  | O=C(O)c1ccc(CCN2C(=O)CCN2CCC(O)Cc2ccccc2)cc1 (stereo unspecified) | Selectivity ratio [1]: 100 |
| 13 | 3070 | O=C(O)c1ccc(CCN2C(=O)CCN2CC[C@@H](O)Cc2cccc(Br)c2)cc1 | EC50 [2]: > 10000 nM; EC50 [3]: 0.1 nM |
| 44 | 560 | CC(CCN1CCC(=O)N1CCc1ccc(C(=O)O)cc1)Cc1cccc(CCc2ccccc2)c1 (stereo unspecified) |  |
| 26 | 2030 | O=C(O)c1ccc(CCN2C(=O)CCN2CC[C@@H](O)Cc2cccc(I)c2)cc1 |  |
|  |  | CCCCCC(O)CCN1CCC(=O)N1CCc1ccc(C(=O)O)cc1 (stereo unspecified) | Selectivity ratio [1]: 10 |
| 330 | 8340 | O=C(O)c1ccc(CCN2C(=O)CCN2CCC(O)Cc2cccc(CCC3CC3)c2)cc1 (stereo unspecified) |  |
| 27 | 2360 | O=C(O)c1ccc(CCN2C(=O)CCN2CCC(O)Cc2cccc(I)c2)cc1 (stereo unspecified) |  |
| > 50000 | 750 | CCCC1(C(O)CCCN2CCC(=O)N2CCc2ccc(C(=O)O)cc2)CCC1 (stereo unspecified) | EC50 [2]: 393 nM |
| 13 | 5450 | O=C(O)c1ccc(CCN2C(=O)CCN2CCC(O)Cc2cccc(Br)c2)cc1 (stereo unspecified) | solubility [6]: 890 µg/mL (≈ 1930 µM); half-life [7]: 4.25 h; remaining at 1 h [8]: 0%; remaining at 1 h [9]: 7%; Papp [10]: 10 ×10⁻⁶ cm/s; Activity [11]: Dose-dependent effect; solubility [12]: 840 µg/mL (≈ 1820 µM); EC50 [3]: 0.2 nM; fraction unbound [13]: 0.61; bioavailability [14]: 6.7% |
| 57 | 6000 | O=C(O)c1ccc(CCN2C(=O)CCN2CCC(O)Cc2cccc(C(F)(F)F)c2)cc1 (stereo unspecified) |  |
|  |  | O=C(O)c1ccc(CCN2C(=O)CCN2CCC(O)Cc2cccc(Cl)c2)cc1 (stereo unspecified) | EC50 [3]: 0.2 nM |
| > 10000 | 110 | CCCC1([C@H](O)C/C=C/[C@H]2[C@H](O)CC(=O)[C@@H]2CCCCCCC(=O)OC)CCC1 [BUTAPROST] |  |
| 134 | 9200 | O=C(O)c1ccc(CCN2C(=O)CCN2CC[C@@H](O)Cc2ccccc2)cc1 |  |
